What was measured:
[1] = system: β-D-glucuronidase from Helix Pommatia type HP-2; assay: Quick test for enzyme recognition of GUS substrates; assay type: biochemical
Procedure: Dibutyl GUS substrate (compound 27) was tested. First a solution of 2 mg of product (compound 27) in 2 ml pH 8 buffer solution (Merck Titrisol 9888) was made. 1 ml of this solution was kept aside, to the other 1 ml solution 5 μl (500 UNITS) β-D-glucuronidase from Helix Pommatia type HP-2 (Sigma G7017) was added. […] The plate was developed using isooctane/acetone 60:40.

[2] = system: GUS reporter enzyme in hair-root cells of a transgenic tobacco plant; assay: Testing substrate in vivo, confocal microscopy of hair-root cells; assay type: cell-based; settings: cells not permeabilized
Text: FIG. 1. Testing substrate (compound 27) in vivo.

[3] = system: GUS transfected 293T cells; assay: Enzymatic test in mammalian cells electroporated with pLNCGUS; assay type: cell-based; settings: 10 μg/ml
Procedure: FIG. 3. Fluorescent (=GUS transfected) and non-fluorescent 293T cells with the presence of compound 27.
Cells were electroporated in the presence of 10 μg pLNCGUS and after 24 hours, compound 27 (10 mM stock in DMSO) was added to a final concentration of 10 μg/ml. Less than 5% of the cells had taken up the pLNCGUS plasmid.

Row | fluorescent spot on TLC plate after incubation with GUS enzyme (conversion of non-fluorescent substrate into fluorescent product) ([1]; 2 mg in 2 ml pH 8 buffer, 500 UNITS enzyme per 1 ml, 15 minutes shaking at room temperature) | Compound | reaction in GUS substrate test ([1]; after 30 minutes) | detection of GUS reporter enzyme in the cell nucleus [2] | fluorescence of cells in the presence of substrate ([3]; 293T cells electroporated with 10 μg pLNCGUS, substrate added after 24 hours) | fluorescence of cells in the presence of substrate ([3]; cells electroporated in the absence of pLNCGUS)
1 |  | CCCCCc1ccc(O[C@@H]2O[C@H](C(=O)O)[C@@H](O)[C@H](O)[C@H]2O)c(-c2nc3ccc(CCCCC)cc3c(=O)[nH]2)c1 [compound 24, 1-O-(2-(4-oxo-6-n-pentyl-3H-quinazolinyl)-4-n-pentylphenyl)-β-D-glucuronic acid] | clear positive reaction |  |  | 
2 | clear fluorescent spot | CCCCc1ccc(O[C@@H]2OC(C(=O)O)[C@@H](O)[C@@H](O)C2O)c(-c2nc3ccc(CCCC)cc3c(=O)[nH]2)c1 (some centres unmarked) [compound 27] |  | can be shown with lipophilic GUS substrate (compound 27) without permeabilizing cells | Fluorescent | weak background fluorescence

Reference: patent US7863428B2, “Fluorogenic enzyme substrates and methods of preparation” (Tibotec BVBA, priority 2002, dated 2011)
